# According to publication PMC9944328 (Nature Communications, 2023):
# Where two headings read alike, the source gives them in different places.
# Test system: SSTR2 mutants
# Experiment: NanoBiT β-arrestin 1 recruitment assay, HEK293 (SSTR2 mutants);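 as to Top: percent of maximal wild-type response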
# Type: cell-based, human
# Set-up: Bottom / Span / Bottom (best-fit) / Span (best-fit) / Best-fit values Bottom / Best-fit values Span / Bottom (best-fit value) / Span (best-fit value):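 percent of maximal wild-type response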
# Settings: for EC50: read-out: EC50
# Description: The NanoBiT β-arrestin 1 recruitment assays were carried out according to the method described previously. […] Human full-length SSTR wild-type and mutant vectors were C-terminally fused with a 15-amino acid flexible linker and the small fragment (SmBiT). HEK293 cells were seeded into six-well microplates at a density of 1.0 × 10^6 cells/well and cultured for 24 h at 37 °C with 5% CO2. After that, cells were co-transfected with pcDNA3.1+ vectors encoding SSTR wild-type or mutants and human β-arrestin 1. After transfecting for 24 h, the transfected cells were suspended and seeded into white 96-well plates, and then cultured at 37 °C overnight. After that the medium in each well was exchanged for 90 μl of 0.01% bovine serum albumin containing 20 μl of 50 μM coelenterazine h (Carbosynth) diluted in the HBSS assay buffer and incubated for 40 min at room temperature. Then, ligands diluted in the assay buffer was added to each well and the luminescence intensity was measured using the Synergy H1 microplate reader and detected at room temperature in a time period. All data presented are means of at least three independent experiments.
# [1] = best-fit value, T194A-1 (run 1)
# [2] = best-fit value, T194A-2 (run 2)
# [3] = best-fit value, T194A-3 (run 3)
# [4] = best-fit value, V103A-1 (run 1)
# [5] = best-fit value, V103A-2 (run 2)
# [6] = best-fit value, V103A-3 (run 3)
smiles,measurement,setting,value
C[C@@H](O)[C@@H]1NC(=O)[C@H](CCCCN)NC(=O)[C@@H](Cc2c[nH]c3ccccc23)NC(=O)[C@H](Cc2ccccc2)NC(=O)[C@@H](NC(=O)[C@H](N)Cc2ccccc2)CSSC[C@@H](C(=O)N[C@H](CO)[C@@H](C)O)NC1=O [octreotide],LogEC50,"best-fit value, L99A-3 (run 3)",-6.902
same,Span,"best-fit value, L99A-3 (run 3)",131.2
same,Top,"best-fit value, L99A-3 (run 3)",128.3
same,LogEC50,[1],-7.278
same,Span,[1],56.43
same,EC50,[1],52.8 nM
same,LogEC50,[2],-7.381
same,Span,[2],55.9
same,EC50,[2],41.6 nM
same,LogEC50,[3],-7.29
same,Span,[3],56.81
same,EC50,[3],51.3 nM
same,Bottom,[4],-1.867
same,LogEC50,[4],-7.141
same,Span,[4],86.59
same,Top,[4],84.73
same,EC50,[4],72.2 nM
same,Bottom,[5],-2.214
same,LogEC50,[5],-7.263
same,Span,[5],87.54
same,Top,[5],85.33
same,EC50,[5],54.6 nM
same,Bottom,[6],-2.646
same,LogEC50,[6],-7.193
same,Span,[6],87.08
same,Top,[6],84.44
same,EC50,[6],64.1 nM
same,Bottom,"best-fit value, Y50A-1 (run 1)",-0.1631
same,LogEC50,"best-fit value, Y50A-1 (run 1)",-8.742
same,Span,"best-fit value, Y50A-1 (run 1)",56.29
same,Top,"best-fit value, Y50A-1 (run 1)",56.13
same,EC50,"best-fit value, Y50A-1 (run 1)",1.81 nM
same,Bottom,"best-fit value, Y50A-2 (run 2)",-2.513
same,LogEC50,"best-fit value, Y50A-2 (run 2)",-7.952
same,Span,"best-fit value, Y50A-2 (run 2)",74.92
same,Top,"best-fit value, Y50A-2 (run 2)",72.41
same,EC50,"best-fit value, Y50A-2 (run 2)",11.2 nM
same,Bottom,"best-fit value, Y50A-3 (run 3)",-0.965
same,LogEC50,"best-fit value, Y50A-3 (run 3)",-8.796
same,Span,"best-fit value, Y50A-3 (run 3)",58.15
same,Top,"best-fit value, Y50A-3 (run 3)",57.19
same,EC50,"best-fit value, Y50A-3 (run 3)",1.6 nM
same,Bottom,"best-fit, I284A-1",2.896
same,LogEC50,"best-fit, I284A-1",-7.134
same,Span,"best-fit, I284A-1",74.77
same,Top,"best-fit, I284A-1",77.67
same,EC50,"best-fit, I284A-1",73.4 nM
same,Bottom,"best-fit, I284A-2",-1.923
same,LogEC50,"best-fit, I284A-2",-7.815
same,Span,"best-fit, I284A-2",108.7
same,Top,"best-fit, I284A-2",106.8
same,EC50,"best-fit, I284A-2",15.3 nM
same,Bottom,"best-fit, I284A-3",2.808
same,LogEC50,"best-fit, I284A-3",-7.106
same,Span,"best-fit, I284A-3",79.8
same,Top,"best-fit, I284A-3",82.61
same,EC50,"best-fit, I284A-3",78.4 nM
same,LogEC50,"best-fit, P286A-1",-8.053
same,Span,"best-fit, P286A-1",62.29
same,Top,"best-fit, P286A-1",66.68
same,EC50,"best-fit, P286A-1",8.86 nM
same,Bottom,"best-fit, P286A-2",2.819
same,LogEC50,"best-fit, P286A-2",-8.168
same,Span,"best-fit, P286A-2",59.43
same,Top,"best-fit, P286A-2",62.25
same,EC50,"best-fit, P286A-2",6.79 nM
same,Bottom,"best-fit, P286A-3",4.198
same,LogEC50,"best-fit, P286A-3",-8.213
same,Span,"best-fit, P286A-3",84.87
same,Top,"best-fit, P286A-3",89.07
same,EC50,"best-fit, P286A-3",6.12 nM
same,Bottom,"best-fit, S285A-1",2.2
same,LogEC50,"best-fit, S285A-1",-9.537
same,Span,"best-fit, S285A-1",70
same,Top,"best-fit, S285A-1",72.2
same,EC50,"best-fit, S285A-1",0.29 nM
same,Bottom,"best-fit, S285A-2",3.756
same,LogEC50,"best-fit, S285A-2",-9.426
same,Span,"best-fit, S285A-2",71.47
same,Top,"best-fit, S285A-2",75.22
same,EC50,"best-fit, S285A-2",0.375 nM
